PMC9011347, “Small-Molecule Inhibitors Targeting Lipolysis in Human Adipocytes” (Journal of the American Chemical Society, 2022)
Several values for one entry are separate records, joined by “and”; a condition that tells them apart may be missing. Identical values can stand only once. Like-named read-outs stand apart in the source and are kept apart here.

Columns and labels:
Assay type in all cases: biochemical
[1] = target: T1, human ATGL (aa 1–288) (Homo sapiens, UniProt Q96AD5); test: TAG hydrolase assay, wild-type and chimeric ATGL variants in Expi293 lysates
T1 construct: human ATGL (aa 1–288); host or cells: Expi293 cells, crude lysate
From the text: (§1) Since experimental three-dimensional (3D) structures for ATGL are currently not available, we utilized chimeric variants of mouse and human ATGL for the identification of binding sites. The constructs c1–c9 (Figure 5a) comprised the N-terminal […] of ATGL, which are sufficient to retain enzymatic activity.[50] In variants c1 and c2, exchange of the N-terminal 158 aa between human and mouse ATGL switched inhibitor reactivity.
(§2) Figure 5 Analysis of chimeric proteins comprising human and mouse ATGL. (a) Schematic view of the minimal active domain of wild-type and chimeric ATGL variants (c1–c9). Nonidentical aa are indicated in blue and red for mouse and human ATGL, respectively. ATGL variants were expressed in Expi293 cells and TAG hydrolase activity was determined in cell lysates in the presence or absence of NG-497 (10 μM) and Atglistatin (10 μM), respectively. Inhibition of ATGL variants by respective inhibitors (tick mark) and lack of inhibition (cross) is indicated at the right edge. The expression of all ATGL variants was confirmed by Western blotting analysis (Figure S6). […]
(§3) Expression of recombinant ATGL constructs and preparation of cell lysates. […] Protein concentrations were determined using Bio-Rad protein assay (Bio-Rad 785, Bio-Rad Laboratories, Munich, Germany) using BSA as standard. […]

[2] = target: T2, c1 (human aa 1–158 and mouse aa 159–288) (Homo sapiens, UniProt Q96AD5, L232M/Q250R/R257Q); test: TAG hydrolase assay, chimeric ATGL variants; settings: chimeric variant c1
T2 construct: c1 (human aa 1–158 and mouse aa 159–288); host or cells: Expi293 cells, crude lysate
From the text: as §1
(§4) Figure 5 Analysis of chimeric proteins comprising human and mouse ATGL. (a) Schematic view of the minimal active domain of wild-type and chimeric ATGL variants (c1–c9). Nonidentical aa are indicated in blue and red for mouse and human ATGL, respectively. ATGL variants were expressed in Expi293 cells and TAG hydrolase activity was determined in cell lysates in the presence or absence of NG-497 (10 μM) and Atglistatin (10 μM), respectively. Inhibition of ATGL variants by respective inhibitors (tick mark) and lack of inhibition (cross) is indicated at the right edge. The expression of all ATGL variants was confirmed by Western blotting analysis (Figure S6). (b) Dose-dependent inhibition of human ATGL (aa 1–288) and c1 (human aa 1–158 and mouse aa 159–288) by NG-497. (c) Dose-dependent inhibition of mouse ATGL (aa 1–288) and c2 (mouse aa 1–158 and human aa 159–288) by Ai. IC50 values are shown in the insets. Data are presented as relative inhibition of respective DMSO controls and are indicated as mean ± SD. (d) 3D homology model of the minimal active domain of mouse ATGL (M1–L254) depicted as a cartoon. Residues 1–178 are in blue, and residues 179–254 are in gray. S47 and D166 comprising the active site are represented as green sticks. T101, C106, R109, N111, and S133 are colored in orange, A60, N68, I69, T93, C97, and T146 are colored in magenta. TEXT PRINTED IN THE PICTURE: (b) NG-497: IC50 [μM] (human): 1.3±0.1; IC50 [μM] (c1): 1.3±0.1 | (b) Ai: IC50 [μM] (human): n.det.; IC50 [μM] (c1): n.det. | (c) NG-497: IC50 [μM] (mouse): n.det.; IC50 [μM] (c2): n.det. | (c) Ai: IC50 [μM] (mouse): 2.5±0.3; IC50 [μM] (c2): 2.4±0.1 […]
(§5) Experimental details, materials, and methods
(§6) Expression of recombinant ATGL constructs and preparation of cell lysates. Expi293 cells were cultivated in Expi293 Expression Medium (GIBCO, Thermo Fisher Scientific, Waltham, USA) at standard conditions (37°C, 5% CO2, 95% humidified atmosphere, 125 rpm). DNA constructs containing ATGL from different species and chimeric ATGL variants in pcDNA3.1(+)myc-His C Vector were obtained from BioCat GmbH (Heidelberg, Germany). […] Protein concentrations were determined using Bio-Rad protein assay (Bio-Rad 785, Bio-Rad Laboratories, Munich, Germany) using BSA as standard. […]

[3] = target: T3, c2 (mouse aa 1–158 and human aa 159–288) (Mus musculus, UniProt Q8BJ56, M232L/Q257R/R250Q); test: TAG hydrolase assay, chimeric ATGL variants; settings: chimeric variant c2
T3 construct: host or cells: Expi293 cells, cell lysate
From the text: as §1, §4, §5, §6

[4] = target: T4, mouse ATGL (aa 1–288) (Mus musculus, UniProt Q8BJ56); test: TAG hydrolase assay, wild-type and chimeric ATGL variants; settings: wild-type mouse ATGL (aa 1–288)
T4 construct: mouse ATGL (aa 1–288); host or cells: Expi293 cells, crude lysate
From the text: as §1, §2, §3

T3 sequence (Q8BJ56 with tags, fused parts or gaps M232L/R250Q/Q257R): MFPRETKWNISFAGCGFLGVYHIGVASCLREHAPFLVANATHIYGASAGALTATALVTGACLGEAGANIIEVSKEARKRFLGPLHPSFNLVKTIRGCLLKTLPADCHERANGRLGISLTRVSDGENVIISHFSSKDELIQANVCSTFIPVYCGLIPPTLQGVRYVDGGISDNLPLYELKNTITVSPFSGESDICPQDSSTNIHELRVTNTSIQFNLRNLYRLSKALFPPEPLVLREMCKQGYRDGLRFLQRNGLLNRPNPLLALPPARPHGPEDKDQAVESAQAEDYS
T4 sequence (Q8BJ56 1-288): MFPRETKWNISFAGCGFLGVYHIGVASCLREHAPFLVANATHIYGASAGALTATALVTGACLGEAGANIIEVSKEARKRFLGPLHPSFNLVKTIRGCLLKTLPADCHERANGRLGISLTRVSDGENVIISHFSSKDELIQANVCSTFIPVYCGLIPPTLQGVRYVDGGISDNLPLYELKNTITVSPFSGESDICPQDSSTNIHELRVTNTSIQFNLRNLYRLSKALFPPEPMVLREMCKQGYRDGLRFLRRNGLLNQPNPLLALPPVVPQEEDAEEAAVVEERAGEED
T2 sequence (Q96AD5 with tags, fused parts or gaps L232M/Q250R/R257Q): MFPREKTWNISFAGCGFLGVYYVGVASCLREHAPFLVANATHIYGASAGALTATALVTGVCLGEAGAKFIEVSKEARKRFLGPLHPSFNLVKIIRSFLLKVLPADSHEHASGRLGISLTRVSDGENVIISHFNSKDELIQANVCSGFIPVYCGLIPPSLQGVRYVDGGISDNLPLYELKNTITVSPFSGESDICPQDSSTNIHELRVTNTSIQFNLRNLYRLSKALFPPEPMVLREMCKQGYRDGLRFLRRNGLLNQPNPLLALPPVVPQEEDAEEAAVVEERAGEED
T1 sequence (Q96AD5 1-288): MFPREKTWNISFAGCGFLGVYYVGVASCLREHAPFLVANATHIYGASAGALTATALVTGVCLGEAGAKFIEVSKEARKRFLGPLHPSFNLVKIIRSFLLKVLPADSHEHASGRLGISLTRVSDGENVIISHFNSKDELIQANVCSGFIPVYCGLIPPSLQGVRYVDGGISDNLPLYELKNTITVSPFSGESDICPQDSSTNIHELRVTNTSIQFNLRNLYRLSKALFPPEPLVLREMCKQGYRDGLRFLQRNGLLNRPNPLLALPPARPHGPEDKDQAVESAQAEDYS

SMILES | IC50 ([1]; read-out: IC50) | IC50 ([2]; read-out: IC50) | IC50 [3] | IC50 [4] | IC50 [1] | IC50 [2] | IC50 ([3]; read-out: IC50) | IC50 ([4]; read-out: IC50)
CCOc1ccc(-c2cc(OC)cc(C(=O)OC(C)C)n2)cc1 [NG-497] | 1.3 µM | 1.3 µM | ineffective | ineffective |  |  |  | 
CN(C)C(=O)Nc1cccc(-c2ccc(N(C)C)cc2)c1 [Atglistatin, reference compound] |  |  |  |  | ineffective | ineffective | ~2.5 µM and 2.4 µM | ~2.5 µM and 2.5 µM
